Experimental data from publication PMC10899790, “A bromodomain-independent mechanism of gene regulation by the BET inhibitor JQ1: direct activation of nuclear receptor PXR” (Nucleic Acids Research, 2023).

What was measured:
human PXR = molecular target: T1, human PXR (Homo sapiens, UniProt O75469); test: PXR transactivation assay (CYP3A4-luciferase reporter)
T1 sequence (O75469 1-434): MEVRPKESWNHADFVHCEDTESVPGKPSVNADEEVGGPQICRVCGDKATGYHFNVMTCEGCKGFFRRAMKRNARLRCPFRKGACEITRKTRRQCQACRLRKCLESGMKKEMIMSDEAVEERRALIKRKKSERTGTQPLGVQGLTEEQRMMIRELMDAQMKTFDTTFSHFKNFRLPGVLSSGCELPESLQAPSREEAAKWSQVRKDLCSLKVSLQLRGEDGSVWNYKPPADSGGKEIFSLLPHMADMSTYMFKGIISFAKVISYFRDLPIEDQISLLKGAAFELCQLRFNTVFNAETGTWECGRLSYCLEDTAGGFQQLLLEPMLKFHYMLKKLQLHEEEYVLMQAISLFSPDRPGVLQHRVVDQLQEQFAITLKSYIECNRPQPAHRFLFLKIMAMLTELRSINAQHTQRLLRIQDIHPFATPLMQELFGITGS
Method: Assays were performed similarly as previously described with minor modifications ([30–32]). HepG2 cells (7.5 × 10^5/well) were plated in six-well tissue culture-treated plates. The following day, cells were co-transfected with pGL3-CYP3A4-luc (2 μg/well), pRL-CMV (200 ng/well) and 100 ng/well of either empty vector (pcDNA3), pcDNA3-FLAG-PXR, pCMV6-mPXR or pGL4.53-PGK-PXR using Lipofectamine 3000 (Thermo Fisher Scientific). Twenty-four hours after transfection, cells were trypsinized and suspended in phenol red-free DMEM (Thermo Fisher Scientific) supplemented with 5% charcoal/dextran-treated FBS (HyClone), and 1 × 10^4 cells/well in 25 μl media were added to white 384-well plates. […] After 24 h, the Dual-Glo Luciferase Assay System (Promega) and EnVision microplate reader (PerkinElmer) were used to measure firefly and Renilla luciferase activities. CMV-driven Renilla luciferase was used as an indicator of general transcriptional modulation by the test compounds and is plotted as fold change (FC) relative to DMSO controls. Assays utilizing pGL4.54[luc2/TK], pGL4.53[luc2/PGK], or pGL4.13[luc2/SV40] were similarly performed and normalized. For the PXR-responsive CYP3A4-luciferase reporter, the measured relative light units (RLU) were normalized for each well using equation (1),
RLUT0901317 represents the measured RLU from wells containing 1 μM T0901317. For mPXR assays, 5 μM PCN was used in place of T0901317.

HepG2 cells = test: Cytotoxicity assay (CellTiter-Glo); assay type: cell-based, human; conditions: HepG2, 24 h
Method: HepG2 cells (1 × 10^4/well in 25 μl phenol red-free DMEM supplemented with 5% charcoal/dextran-treated FBS) were plated and treated as in the transactivation assays. After 24 h compound treatment, the CellTiter-Glo Luminescent Cell Viability Assay (Promega) and an EnVision microplate reader were used to assess cytotoxicity. DMSO wells with cells served as negative controls, and wells without cells served as positive controls. The averaged luminescence signal of the wells without cells was subtracted from the luminescence signals of all other wells, and the background subtracted values were normalized to DMSO-treated wells containing cells to obtain percent cell viability.

CMV promoter = test: CMV-Renilla luciferase reporter; assay type: cell-based, human; conditions: HepG2, 24 h; fold change relative to DMSO
PXR LBD = molecular target: T2, PXR LBD (Homo sapiens, UniProt O75469); test: TR-FRET PXR LBD ligand binding assay; conditions: TR-FRET competition with BODIPY FL vindoline
T2 construct: GST-PXR LBD protein (cat. # PV4841) were purchased from Thermo Fisher Scientific; purchased Thermo Fisher Scientific PV4841
T2 sequence (O75469 146-433 limits assumed): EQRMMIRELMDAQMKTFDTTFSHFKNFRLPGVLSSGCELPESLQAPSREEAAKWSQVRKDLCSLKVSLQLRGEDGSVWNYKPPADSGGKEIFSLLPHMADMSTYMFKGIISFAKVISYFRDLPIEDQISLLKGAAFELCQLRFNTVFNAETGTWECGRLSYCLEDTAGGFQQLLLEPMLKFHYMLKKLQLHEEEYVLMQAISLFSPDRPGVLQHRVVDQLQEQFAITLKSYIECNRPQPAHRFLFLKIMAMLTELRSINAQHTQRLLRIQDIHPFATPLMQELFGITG
Method: The TR-FRET PXR LBD ligand binding assay measures binding of PXR ligands by competition with a fluorescently labeled ligand (BODIPY FL vindoline) (Supplementary Figure S3) and was performed as previously described with minor modifications ([24]). […] BODIPY FL vindoline (15 μl/well, 133.3 nM in assay buffer) was dispensed into 384-well low-volume black assay plates. An Echo 650 Acoustic Liquid Handler then dispensed 60 nl/well of compound stocks or DMSO.

PXR = test: RNA induction in HepaRG: PXR RNA (RT-qPCR); assay type: cell-based, human; conditions: differentiated HepaRG, 24 h; FC relative to DMSO
Method: (§1) Experiments with HepaRG cells were conducted similarly to previously described ([45]), with modifications. HepaRG cells were seeded in collagen-coated 24-well plates at 5 × 10^5 cells/well in HCM. Cells were differentiated for two weeks with HCM containing 2% DMSO. The cells were then treated with the respective chemicals for 24 h in HCM. The final DMSO concentration for the treatment was 0.5%. Total RNA was isolated from cells with Maxwell 16 LEV SimplyRNA Tissue Kits (Promega), and cDNA was generated from 250 ng of RNA with the SuperScript VILO cDNA Synthesis Kit (Thermo Fisher Scientific). Quantitative real-time polymerase chain reaction (RT-qPCR) was conducted with 2 μl of cDNA using TaqMan Fast Advanced Master Mix (Applied Biosystems) in an Applied Biosystems 7500 Fast Real-Time PCR System. TaqMan gene expression assays specific for CYP3A4 (Hs00604506_m1), PXR (Hs01114267_m1), MYC (Hs00153408_m1) and RNA18S (Hs03928990_g1) were purchased from Thermo Fisher Scientific. Fold induction values were calculated according to the 2^−ΔΔCt method, where ΔCt represents the differences in cycle threshold numbers between the target gene and reference gene and ΔΔCt represents the relative change in these differences between the control and treatment groups ([46]). RNA18S was used as the reference gene for relative quantification of all other genes.

BET proteins = system: BET proteins; set-up: method as in PMID 20871596; conditions: cited from earlier work
CYP3A4 = test: RNA induction in HepaRG: CYP3A4 mRNA (RT-qPCR); conditions: differentiated HepaRG, 24 h
Method: as §1

## Cc1sc2c(c1C)C(c1ccc(Cl)cc1)=N[C@H](CC(=O)OC(C)(C)C)c1nnc(C)n1-2 [(−)-JQ1]
Human PXR; HepG2, 24 h, PGK-driven PXR
  activation of CYP3A4-luciferase reporter with PXR expressed from a PGK promoter: retained activation of the CYP3A4-luciferase reporter
Human PXR; human
  activation of PXR-responsive CYP3A4-luciferase reporter: activated the CYP3A4-luciferase reporter with similar potency but greater efficacy than JQ1
HepG2 cells
  cytotoxicity (cell viability): decreased cytotoxicity
HepG2 cells; listed as (-)-JQ1
  cytotoxicity (cell viability): less cytotoxic than JQ1
CMV promoter
  CMV-Renilla luciferase reporter expression: only marginally induced the CMV-Renilla luciferase reporter at high concentrations
PXR LBD
  binding to purified PXR LBD (binding potency): comparable to rifampicin in binding potencies
PXR
  PXR RNA expression: much less than that observed with the BET inhibitors
BET proteins
  binding to BET proteins: does not bind BET proteins
CYP3A4; FC relative to DMSO
  endogenous CYP3A4 mRNA expression: more robustly induced CYP3A4 expression than JQ1
CYP3A4; co-treated with SPA70
  endogenous CYP3A4 mRNA expression on co-treatment with SPA70: without reducing CYP3A4 in the presence of SPA70
